Several values for one entry are separate records, joined by “and”; a condition that tells them apart may be missing. Equal values may be shown once.
Test system: 328373-195-R-J1-PDC complex spheroids, viability % test/control
Assay: Anticancer human tumor 328373-195-R-J1-PDC patient-derived head and neck squamous carcinoma cell line growth inhibition [CLK]
Conditions: for viability, T/C: stronger effect = lower value; active = viability on the fitted dose curve at most 10% of control; inactive = the rest
Method in brief: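 Patient-derived tumor cells grown as complex spheroids with HUVEC endothelial cells and mesenchymal stem cells, treated with drug combinations. Concentrations descend in half-log steps from near clinical Cmax, or from 10 microM if Cmax unknown.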

[1] = curve of first compound, second compound 0.0316 µM
[2] = curve of first compound, second compound 0.1 µM
[3] = curve of first compound, second compound 0.316 µM
[4] = curve of first compound, second compound 1 µM
[5] = curve of first compound, second compound 3.16 µM
[6] = curve of first compound, second compound 10 µM
[7] = second compound 0.0316 µM, first compound 0.00316 µM
[8] = second compound 0.0316 µM, first compound 0.01 µM
[9] = second compound 0.0316 µM, first compound 0.0316 µM
[10] = second compound 0.0316 µM, first compound 0.1 µM
[11] = second compound 0.1 µM, first compound 0.00316 µM
[12] = second compound 0.1 µM, first compound 0.01 µM
[13] = second compound 0.1 µM, first compound 0.0316 µM
[14] = second compound 0.1 µM, first compound 0.1 µM
[15] = second compound 0.316 µM, first compound 0.00316 µM
[16] = second compound 0.316 µM, first compound 0.01 µM
[17] = second compound 0.316 µM, first compound 0.0316 µM
[18] = second compound 0.316 µM, first compound 0.1 µM
[19] = second compound 1 µM, first compound 0.00316 µM
[20] = second compound 1 µM, first compound 0.01 µM
[21] = second compound 1 µM, first compound 0.0316 µM
[22] = second compound 1 µM, first compound 0.1 µM
[23] = second compound 3.16 µM, first compound 0.00316 µM
[24] = second compound 3.16 µM, first compound 0.01 µM
[25] = second compound 3.16 µM, first compound 0.0316 µM
[26] = second compound 3.16 µM, first compound 0.1 µM
[27] = second compound 10 µM, first compound 0.00316 µM
[28] = second compound 10 µM, first compound 0.01 µM
[29] = second compound 10 µM, first compound 0.0316 µM
[30] = second compound 10 µM, first compound 0.1 µM
[31] = second compound 0.0316 µM, first compound 0.316 µM
[32] = second compound 0.0316 µM, first compound 1 µM
[33] = second compound 0.0316 µM, first compound 3.16 µM
[34] = second compound 0.0316 µM, first compound 10 µM
[35] = second compound 0.1 µM, first compound 0.316 µM
[36] = second compound 0.1 µM, first compound 1 µM
[37] = second compound 0.1 µM, first compound 3.16 µM
[38] = second compound 0.1 µM, first compound 10 µM
[39] = second compound 0.316 µM, first compound 0.316 µM
[40] = second compound 0.316 µM, first compound 1 µM
[41] = second compound 0.316 µM, first compound 3.16 µM
[42] = second compound 0.316 µM, first compound 10 µM
[43] = second compound 1 µM, first compound 0.316 µM
[44] = second compound 1 µM, first compound 1 µM
[45] = second compound 1 µM, first compound 3.16 µM
[46] = second compound 1 µM, first compound 10 µM
[47] = second compound 3.16 µM, first compound 0.316 µM
[48] = second compound 3.16 µM, first compound 1 µM
[49] = second compound 3.16 µM, first compound 3.16 µM
[50] = second compound 3.16 µM, first compound 10 µM
[51] = second compound 10 µM, first compound 0.316 µM
[52] = second compound 10 µM, first compound 1 µM
[53] = second compound 10 µM, first compound 3.16 µM
[54] = second compound 10 µM, first compound 10 µM
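Also: spheroids exposed to the agents for 7 days.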

Cn1ncnc1[C@H]1c2n[nH]c(=O)c3cc(F)cc(c23)N[C@@H]1c1ccc(F)cc1 + CNC(=O)c1ccc(Nc2nc(OC3CCCC3)c3c(-c4ccc5nc(C)oc5c4)c[nH]c3n2)c(OC)c1
inactive: viability, T/C (second compound 0.0316 µM, first compound 0.000316 µM) 51.9% | viability, T/C (second compound 0.0316 µM, first compound 0.001 µM) 51.6% | viability, T/C [7] 47.8% | viability, T/C [8] 66.8% | viability, T/C [9] 51.7% | viability, T/C [10] 40.6% | viability, T/C (second compound 0.1 µM, first compound 0.000316 µM) 9.58% | viability, T/C (second compound 0.1 µM, first compound 0.001 µM) 9.68% | viability, T/C [11] 9.49% | viability, T/C [12] 11.1% | viability, T/C [13] 9.25% | viability, T/C [14] 12.2% | viability, T/C (second compound 10 µM, first compound 0.000316 µM) 11.2% | viability, T/C (second compound 10 µM, first compound 0.001 µM) 11.1% | viability, T/C [27] 8.71% | viability, T/C [28] 11.8% | viability, T/C [29] 12.4% | viability, T/C [30] 8.72%
active: viability, T/C (second compound 0.316 µM, first compound 0.000316 µM) 9.25% | viability, T/C (second compound 0.316 µM, first compound 0.001 µM) 10.3% | viability, T/C [15] 8.72% | viability, T/C [16] 10.3% | viability, T/C [17] 9.93% | viability, T/C [18] 10.4% | viability, T/C (second compound 1 µM, first compound 0.000316 µM) 9.2% | viability, T/C (second compound 1 µM, first compound 0.001 µM) 9.13% | viability, T/C [19] 9.32% | viability, T/C [20] 11.8% | viability, T/C [21] 9.07% | viability, T/C [22] 8.36% | viability, T/C (second compound 3.16 µM, first compound 0.000316 µM) 9.59% | viability, T/C (second compound 3.16 µM, first compound 0.001 µM) 9.4% | viability, T/C [23] 9.78% | viability, T/C [24] 10% | viability, T/C [25] 11% | viability, T/C [26] 9.49%
< 0.316 nM: IC50 [2] | IC50 [3] | IC50 [4] | IC50 [5] | IC50 [6]
40.6 nM: IC50 [1]

COc1cccc2c1C(=O)c1c(O)c3c(c(O)c1C2=O)CC(O)(C(=O)CO)CC3OC1CC(N)C(O)C(C)O1 (configuration not stated) + CNC(=O)c1ccc(Nc2nc(OC3CCCC3)c3c(-c4ccc5nc(C)oc5c4)c[nH]c3n2)c(OC)c1
< 31.6 nM: IC50 [1] | IC50 [2] | IC50 [3] | IC50 [4] | IC50 [5] | IC50 [6]
inactive: viability, T/C [9] 12.6% | viability, T/C [25] 11.5% | viability, T/C [29] 12.1%
active: viability, T/C [10] 4.2% | viability, T/C [31] 0.6% | viability, T/C [32] 0.17% | viability, T/C [33] 0.12% | viability, T/C [34] 3.04% | viability, T/C [13] 8.2% | viability, T/C [14] 3.67% | viability, T/C [35] 0.55% | viability, T/C [36] 0.13% | viability, T/C [37] 0.09% | viability, T/C [38] 4.34% | viability, T/C [17] 8.9% | viability, T/C [18] 3.98% | viability, T/C [39] 0.5% | viability, T/C [40] 0.07% | viability, T/C [41] 0.07% | viability, T/C [42] 1.96% | viability, T/C [21] 8.51% | viability, T/C [22] 2.74% | viability, T/C [43] 1.07% | viability, T/C [44] 0.06% | viability, T/C [45] 0.07% | viability, T/C [46] 4.59% | viability, T/C [26] 3.82% | viability, T/C [47] 0.22% | viability, T/C [48] 0.06% | viability, T/C [49] 0.93% | viability, T/C [50] 2.69% | viability, T/C [30] 1.9% | viability, T/C [51] 0.16% | viability, T/C [52] 0.1% | viability, T/C [53] 0.6% | viability, T/C [54] 2.6%

COc1ccc([C@@H](O)c2cc(-c3ncnc4cc(N5CCOCC5)ccc34)c(F)cc2Cl)nn1
inactive: viability, T/C (compound 0.0316 µM) 92.4% and 111% | viability, T/C (compound 0.1 µM) 91.4% and 93% | viability, T/C (compound 0.316 µM) 88% and 80% | viability, T/C (compound 1 µM) 86.8% and 84.3% | viability, T/C (compound 3.16 µM) 76% and 71.4% | viability, T/C (compound 10 µM) 48.9% and 47.2%
9710 nM and > 10000 nM: IC50 (curve of compound)

COC1C=CCC(C)C(C)S(=O)(=O)NC(=O)c2ccc3c(c2)N(CC2CCC21)CC1(CCCc2cc(Cl)ccc21)CO3 (configuration not stated) + CN1CCN(c2cc(C(=O)Nc3cc4cc(-c5cnn(C)c5)ccc4cn3)ccn2)CC1
inactive: viability, T/C [9] 96.7% | viability, T/C [10] 99.5% | viability, T/C [31] 108% | viability, T/C [32] 105% | viability, T/C [33] 81.2% | viability, T/C [34] 48% | viability, T/C [13] 77.3% | viability, T/C [14] 87% | viability, T/C [35] 82.2% | viability, T/C [36] 80.7% | viability, T/C [37] 73.5% | viability, T/C [38] 44% | viability, T/C [17] 36% | viability, T/C [18] 35.3% | viability, T/C [39] 37% | viability, T/C [40] 32.4% | viability, T/C [41] 29.3% | viability, T/C [42] 13.3%
9330 nM: IC50 [1]
< 31.6 nM: IC50 [3] | IC50 [4] | IC50 [5] | IC50 [6]
7920 nM: IC50 [2]
active: viability, T/C [21] 0.21% | viability, T/C [22] 2.53% | viability, T/C [43] 2.21% | viability, T/C [44] 1.57% | viability, T/C [45] 0.27% | viability, T/C [46] 1.2% | viability, T/C [25] 2.24% | viability, T/C [26] 3.21% | viability, T/C [47] 2.04% | viability, T/C [48] 1.78% | viability, T/C [49] 1.66% | viability, T/C [50] 1.86% | viability, T/C [29] 4.14% | viability, T/C [30] 0.77% | viability, T/C [51] 1.41% | viability, T/C [52] 2.69% | viability, T/C [53] 1.19% | viability, T/C [54] 0.32%

CCN1CCN(Cc2ccc(Nc3ncc(F)c(-c4cc(F)c5nc(C)n(C(C)C)c5c4)n3)nc2)CC1 + CN1CCN(c2cc(C(=O)Nc3cc4cc(-c5cnn(C)c5)ccc4cn3)ccn2)CC1
inactive: viability, T/C [7] 94.7% | viability, T/C [8] 95.9% | viability, T/C [9] 103% | viability, T/C [10] 79.5% | viability, T/C [31] 71.3% | viability, T/C [32] 51.2% | viability, T/C [11] 86.5% | viability, T/C [12] 84.8% | viability, T/C [13] 88.5% | viability, T/C [14] 69.3% | viability, T/C [35] 63% | viability, T/C [36] 53.3% | viability, T/C [15] 29.9% | viability, T/C [16] 32.9% | viability, T/C [17] 31.6% | viability, T/C [18] 26.5% | viability, T/C [39] 24.2% | viability, T/C [40] 18.5%
> 1000 nM: IC50 [1] | IC50 [2]
active: viability, T/C [19] 0.16% | viability, T/C [20] 2.17% | viability, T/C [21] 0.34% | viability, T/C [22] 1.1% | viability, T/C [43] 0.85% | viability, T/C [44] 0.24% | viability, T/C [23] 0.11% | viability, T/C [24] 1.57% | viability, T/C [25] 1.92% | viability, T/C [26] 0.15% | viability, T/C [47] 1.14% | viability, T/C [48] 0.2% | viability, T/C [27] 0.37% | viability, T/C [28] 0.56% | viability, T/C [29] 3.2% | viability, T/C [30] 0.17% | viability, T/C [51] 1.94% | viability, T/C [52] 1.71%
< 3.16 nM: IC50 [3] | IC50 [4] | IC50 [5] | IC50 [6]

CC(C)CC(NC(=O)C(Cc1ccccc1)NC(=O)c1cnccn1)B(O)O (configuration not stated)
inactive: viability, T/C (compound 0.000949 µM) 97.8% and 115%
1.76 nM and 1.86 nM: IC50 (curve of compound)
active: viability, T/C (compound 0.003 µM) 8.65% and 3.9% | viability, T/C (compound 0.00949 µM) 1.43% and 0.2% | viability, T/C (compound 0.03 µM) 1.56% and 0.3% | viability, T/C (compound 0.0949 µM) 0.16% | viability, T/C (compound 0.3 µM) 0.85% and 0.2%
